A word on the IC50: it is the concentration that gives 50% inhibition.

Structures are written as SMILES.

This experiment deals with PRMT5-MEP50 enzyme complex (Homo sapiens (Human), UniProt O14744). As to the kind of experiment: PRMT5 enzyme activity in vitro assay (methylation of histone H4R3, ELISA absorbance at 450 nm). It counts as biochemical. As to conditions: SAM, histone H4 peptide, room temperature 2 hours, 8 points from 10 μM to 0.128 nM. As for the experimental part: Method for Measuring Enzyme Activity
PRMT5-MEP50 enzyme complex, sequence (O14744 2-637): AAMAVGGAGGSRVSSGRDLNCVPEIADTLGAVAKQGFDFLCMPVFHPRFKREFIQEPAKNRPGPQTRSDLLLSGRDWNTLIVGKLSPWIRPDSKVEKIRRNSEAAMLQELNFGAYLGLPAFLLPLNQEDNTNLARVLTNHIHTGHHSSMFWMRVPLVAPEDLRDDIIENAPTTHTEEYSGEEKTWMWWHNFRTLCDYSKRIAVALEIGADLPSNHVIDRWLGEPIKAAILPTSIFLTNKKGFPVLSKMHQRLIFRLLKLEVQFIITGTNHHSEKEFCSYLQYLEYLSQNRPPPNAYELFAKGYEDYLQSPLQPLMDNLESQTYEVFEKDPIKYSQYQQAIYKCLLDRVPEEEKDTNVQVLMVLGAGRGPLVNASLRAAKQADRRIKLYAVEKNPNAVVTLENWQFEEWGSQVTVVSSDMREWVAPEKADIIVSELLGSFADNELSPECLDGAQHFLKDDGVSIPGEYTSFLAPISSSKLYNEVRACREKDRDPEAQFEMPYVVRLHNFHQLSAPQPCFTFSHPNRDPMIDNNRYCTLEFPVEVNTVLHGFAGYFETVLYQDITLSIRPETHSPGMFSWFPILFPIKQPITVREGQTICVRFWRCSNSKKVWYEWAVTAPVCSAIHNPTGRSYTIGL
PRMT5-MEP50 enzyme complex, sequence (Q9BQA1 2-342 partner): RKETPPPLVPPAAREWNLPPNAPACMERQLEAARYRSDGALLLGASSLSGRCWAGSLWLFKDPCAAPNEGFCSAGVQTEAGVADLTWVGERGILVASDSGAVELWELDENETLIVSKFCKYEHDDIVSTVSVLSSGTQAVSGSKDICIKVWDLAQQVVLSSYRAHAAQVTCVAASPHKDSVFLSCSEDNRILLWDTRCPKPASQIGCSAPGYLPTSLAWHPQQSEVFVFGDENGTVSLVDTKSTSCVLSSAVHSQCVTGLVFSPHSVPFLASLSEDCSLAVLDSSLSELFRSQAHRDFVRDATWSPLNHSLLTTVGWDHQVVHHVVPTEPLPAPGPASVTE
In vitro assay: PRMT5-MEP50 enzyme complex, cofactor S-adenosylmethionine (SAM) and histone H4 peptide were reacted in vitro, and methylation of arginine (H4R3)—which is the third amino acid of histone H4—was measured in order to measure the enzyme activity of PRMT5.
Reagents: PRMT5-MEP50 enzyme complex (Catalog No. 51045), blocking buffer (52100-B), histone methyltransferase reaction buffer 2 (4×HMT assay buffer 2, Catalog No. 52170), and primary antibody (primary antibody 4-3, Catalog No. 52150) were purchased from BPS Bioscience (USA). The histone H4 peptide (1-20 amino acids) was custom made by Komabiotech (Korea) and used. S-adenosylmethionine was purchased from NEB (New England Biolabs, USA, Catalog No. B9003S). Plates for coating histone H4 peptide, washing buffer and color development reagent were purchased from the following vendors: Plate (Immobilizer™-Amino Plate, NUNC, Denmark, Catalog No. 436023), carbonate-bicarbonate buffer (Sigma-Aldrich, USA, Catalog No. C3041), washing buffer (10×TBST, Biosesang, Korea, Catalog No. T2005), TMB ELISA substrate (Abcam, UK, Catalog No. ab210902), horseradish peroxidase (HRP)-conjugated antibody (Abcam, UK, Catalog No. ab6721).
Experimental procedure: The histone H4 peptide was diluted with carbonate-bicarbonate buffer and prepared to 100 μg/mL, and then dispensed onto the plate per 100 μL and reacted at 37° C. for 1 hour. PRMT5-MEP50 enzyme complex and S-adenosylmethionine were diluted with histone methyltransferase reaction buffer to prepare 5 μg/mL and 2 μM, respectively, and then 20 μL of PRMT5-MEP50 enzyme complex and 25 μL of S-adenosylmethionine were dispensed onto the plate prepared above. 5 μL of the compound diluted with 10% dimethyl sulfoxide solution was added thereto and reacted at room temperature for 2 hours (final volume=50 μL). The concentration of the compound was diluted 1:5 from 10 μM until the lowest concentration of 0.128 nM, and 8 points were used for the test. After preparing the primary antibody by diluting 1:2000 with blocking buffer, 100 μL was added to the plate and reacted at room temperature for 1 hour. After preparing horseradish peroxidase-conjugated antibody by diluting 1:10,000 with blocking buffer, 100 μL was added to the plate and reacted at room temperature for 1 hour. 100 μL of TMB substrate was added and reacted for 3 minutes at room temperature, and 100 μL of 1 N sulfuric acid was then added to terminate the reaction. Then, the absorbance at 450 nm was measured to calculate the IC50 value of the compound. (+++: 1 to 100 nM, ++: greater than 100 to 1,000 nM, +: greater than 1,000 to 10,000 nM)
`CN1CCN(Cc2ccc3c(c2)OCCN(C[C@H](O)CN2CCc4ccccc4C2)C3=O)CC1` [Example 54, 4-[(2R)-3-(3,4-dihydro-1H-isoquinolin-2-yl)-2-hydroxy-propyl]-8-[(4-methylpiperazin-1-yl)methyl]-2,3-dihydro-1,4-benzoxazepin-5-one] yielded an IC50 of 1 to 100 nM.

Consider `O=C1c2ccc(CN3CC4CC3CO4)cc2OCCN1C[C@H](O)CN1CCc2ccccc2C1` (stereo partly drawn) [Example 55, 4-[(2R)-3-(3,4-dihydro-1H-isoquinolin-2-yl)-2-hydroxy-propyl]-8-(2-oxa-5-azabicyclo[2.2.1]heptan-5-ylmethyl)-2,3-dihydro-1,4-benzoxazepin-5-one], for which the IC50 was 100 to 1000 nM.

Take `O=C1c2ccc(OCc3cccnc3)cc2OCCN1C[C@H](O)CN1CCc2ccccc2C1` [Example 56, 4-[(2R)-3-(3,4-dihydro-1H-isoquinolin-2-yl)-2-hydroxy-propyl]-8-(3-pyridylmethoxy)-2,3-dihydro-1,4-benzoxazepin-5-one]: the half-maximal inhibitory concentration (IC50) is 100 to 1000 nM.

Take `O=C1c2ccc(OCc3ccncc3)cc2OCCN1C[C@H](O)CN1CCc2ccccc2C1` [Example 57, 4-[(2R)-3-(3,4-dihydro-1H-isoquinolin-2-yl)-2-hydroxy-propyl]-8-(4-pyridylmethoxy)-2,3-dihydro-1,4-benzoxazepin-5-one]: the half-maximal inhibitory concentration (IC50) fell in the range of 1 to 100 nM.

As for `O=C1c2ccc(OCc3ccnc(F)c3)cc2OCCN1C[C@H](O)CN1CCc2ccccc2C1` [Example 58, 4-[(2R)-3-(3,4-dihydro-1H-isoquinolin-2-yl)-2-hydroxy-propyl]-8-[(2-fluoro-4-pyridyl)methoxy]-2,3-dihydro-1,4-benzoxazepin-5-one], the half-inhibitory concentration (IC50) lay in the range of 1 to 100 nM.

As to `O=C1c2ccc(OCc3cc(Cl)nc(Cl)c3)cc2OCCN1C[C@H](O)CN1CCc2ccccc2C1` [Example 59, 8-[(2,6-dichloro-4-pyridyl)methoxy]-4-[(2R)-3-(3,4-dihydro-1H-isoquinolin-2-yl)-2-hydroxy-propyl]-2,3-dihydro-1,4-benzoxazepin-5-one], the IC50 lay within 100 to 1000 nM.

`O=C1c2ccc(OCc3ccnc(F)c3F)cc2OCCN1C[C@H](O)CN1CCc2ccccc2C1` [Example 60, 8-[(2,3-difluoro-4-pyridyl)methoxy]-4-[(2R)-3-(3,4-dihydro-1H-isoquinolin-2-yl)-2-hydroxy-propyl]-2,3-dihydro-1,4-benzoxazepin-5-one] returned a half-inhibitory concentration (IC50) of 100 to 1000 nM.

The compound `O=C1c2ccc(OCc3ccc(F)nc3)cc2OCCN1C[C@H](O)CN1CCc2ccccc2C1` [Example 61, 4-[(2R)-3-(3,4-dihydro-1H-isoquinolin-2-yl)-2-hydroxy-propyl]-8-[(6-fluoro-3-pyridyl)methoxy]-2,3-dihydro-1,4-benzoxazepin-5-one] showed an IC50 of 100 to 1000 nM.

For `O=C1c2ccc(OCc3ccncc3F)cc2OCCN1C[C@H](O)CN1CCc2ccccc2C1` [Example 62, 4-[(2R)-3-(3,4-dihydro-1H-isoquinolin-2-yl)-2-hydroxy-propyl]-8-[(3-fluoro-4-pyridyl)methoxy]-2,3-dihydro-1,4-benzoxazepin-5-one], the IC50 was in the range of 1 to 100 nM.

`O=C1c2ccc(OCc3ccc(F)cn3)cc2OCCN1C[C@H](O)CN1CCc2ccccc2C1` [Example 63, 4-[(2R)-3-(3,4-dihydro-1H-isoquinolin-2-yl)-2-hydroxy-propyl]-8-[(5-fluoro-2-pyridyl)methoxy]-2,3-dihydro-1,4-benzoxazepin-5-one]: the IC50 is 1 to 100 nM.

The compound `O=C1c2ccc(OC3CCOCC3)cc2OCCN1C[C@H](O)CN1CCc2ccccc2C1` [Example 64, 4-[(2R)-3-(3,4-dihydro-1H-isoquinolin-2-yl)-2-hydroxy-propyl]-8-tetrahydropyran-4-yloxy-2,3-dihydro-1,4-benzoxazepin-5-one] returned an IC50 of 1 to 100 nM.

On to `O=C1c2ccc(OCC3CCCCO3)cc2OCCN1C[C@H](O)CN1CCc2ccccc2C1` (stereo partly drawn) [Example 65, 4-[(2R)-3-(3,4-dihydro-1H-isoquinolin-2-yl)-2-hydroxy-propyl]-8-(tetrahydropyran-2-ylmethoxy)-2,3-dihydro-1,4-benzoxazepin-5-one], for which the IC50 was in the range of 100 to 1000 nM.

For the compound `O=C1c2ccc(OCC3CCCCC3)cc2OCCN1C[C@H](O)CN1CCc2ccccc2C1` [Example 66, 8-(cyclohexylmethoxy)-4-[(2R)-3-(3,4-dihydro-1H-isoquinolin-2-yl)-2-hydroxy-propyl]-2,3-dihydro-1,4-benzoxazepin-5-one], the IC50 fell in the range of 100 to 1000 nM.

`O=C1c2ccc(OCC3CCCO3)cc2OCCN1C[C@H](O)CN1CCc2ccccc2C1` (stereo partly drawn) [Example 67, 4-[(2R)-3-(3,4-dihydro-1H-isoquinolin-2-yl)-2-hydroxy-propyl]-8-(tetrahydrofuran-2-ylmethoxy)-2,3-dihydro-1,4-benzoxazepin-5-one] showed an IC50 of 100 to 1000 nM.

`CN1CCCC(Oc2ccc3c(c2)OCCN(C[C@H](O)CN2CCc4ccccc4C2)C3=O)C1` (stereo partly drawn) [Example 68, 4-[(2R)-3-(3,4-dihydro-1H-isoquinolin-2-yl)-2-hydroxy-propyl]-8-[(1-methyl-3-piperidyl)oxy]-2,3-dihydro-1,4-benzoxazepin-5-one]: the concentration for half-maximal inhibition (IC50) lay within 100 to 1000 nM.

Regarding `CCN1CCCC(Oc2ccc3c(c2)OCCN(C[C@H](O)CN2CCc4ccccc4C2)C3=O)C1` (stereo partly drawn) [Example 69, 4-[(2R)-3-(3,4-dihydro-1H-isoquinolin-2-yl)-2-hydroxy-propyl]-8-[(1-ethyl-3-piperidyl)oxy]-2,3-dihydro-1,4-benzoxazepin-5-one], the IC50 lay in the range of 1 to 100 nM.

For the compound `CC(=O)N1CCC(COc2ccc3c(c2)OCCN(C[C@H](O)CN2CCc4ccccc4C2)C3=O)CC1` [Example 70, 8-[(1-acetyl-4-piperidyl)methoxy]-4-[(2R)-3-(3,4-dihydro-1H-isoquinolin-2-yl)-2-hydroxy-propyl]-2,3-dihydro-1,4-benzoxazepin-5-one], the concentration for half-maximal inhibition (IC50) was in the range of 100 to 1000 nM.

Take `O=C1c2ccc(OCC(F)(F)F)cc2OCCN1C[C@H](O)CN1CCc2ccccc2C1` [Example 71, 4-[(2R)-3-(3,4-dihydro-1H-isoquinolin-2-yl)-2-hydroxy-propyl]-8-(2,2,2-trifluoroethoxy)-2,3-dihydro-1,4-benzoxazepin-5-one]: the half-inhibitory concentration (IC50) fell in the range of 100 to 1000 nM.

For `CN(C)CCOc1ccc2c(c1)OCCN(C[C@H](O)CN1CCc3ccccc3C1)C2=O` [Example 72, 4-[(2R)-3-(3,4-dihydro-1H-isoquinolin-2-yl)-2-hydroxy-propyl]-8-[2-(dimethylamino)ethoxy]-2,3-dihydro-1,4-benzoxazepin-5-one], the half-inhibitory concentration (IC50) is 100 to 1000 nM.

For the compound `O=C1c2ccc(OCCN3CCOCC3)cc2OCCN1C[C@H](O)CN1CCc2ccccc2C1` [Example 73, 4-[(2R)-3-(3,4-dihydro-1H-isoquinolin-2-yl)-2-hydroxy-propyl]-8-(2-morpholinoethoxy)-2,3-dihydro-1,4-benzoxazepin-5-one], the IC50 lay in the range of 100 to 1000 nM.

Compound `O=C1CCCN1CCOc1ccc2c(c1)OCCN(C[C@H](O)CN1CCc3ccccc3C1)C2=O` [Example 74, 4-[(2R)-3-(3,4-dihydro-1H-isoquinolin-2-yl)-2-hydroxy-propyl]-8-[2-(2-oxopyrrolidin-1-yl)ethoxy]-2,3-dihydro-1,4-benzoxazepin-5-one] came in with a concentration for half-maximal inhibition (IC50) of 100 to 1000 nM.

`CCN(CC)C(=O)COc1ccc2c(c1)OCCN(C[C@H](O)CN1CCc3ccccc3C1)C2=O` [Example 75, 2-[[4-[(2R)-3-(3,4-dihydro-1H-isoquinolin-2-yl)-2-hydroxy-propyl]-5-oxo-2,3-dihydro-1,4-benzoxazepin-8-yl]oxy]-N,N-diethyl-acetamide]: the 50% inhibitory concentration (IC50) lay in the range of 100 to 1000 nM.

Turning to `O=C1CCC(Oc2ccc3c(c2)OCCN(C[C@H](O)CN2CCc4ccccc4C2)C3=O)CN1` (stereo partly drawn) [Example 76, 4-[(2R)-3-(3,4-dihydro-1H-isoquinolin-2-yl)-2-hydroxy-propyl]-8-[(6-oxo-3-piperidyl)oxy]-2,3-dihydro-1,4-benzoxazepin-5-one], the IC50 lay within 100 to 1000 nM.

Compound `CC(C)(C)OC(=O)N1CCC(Oc2ccc3c(c2)OCCN(C[C@H](O)CN2CCc4ccccc4C2)C3=O)CC1` [Example 77, tert-butyl 4-[[4-[(2R)-3-(3,4-dihydro-1H-isoquinolin-2-yl)-2-hydroxy-propyl]-5-oxo-2,3-dihydro-1,4-benzoxazepin-8-yl]oxy]piperidine-1-carboxylate] returned a 50% inhibitory concentration (IC50) of 1 to 100 nM.

Consider `CC(=O)N1CCC(Oc2ccc3c(c2)OCCN(C[C@H](O)CN2CCc4ccccc4C2)C3=O)CC1` [Example 78, 8-[(1-acetyl-4-piperidyl)oxy]-4-[(2R)-3-(3,4-dihydro-1H-isoquinolin-2-yl)-2-hydroxy-propyl]-2,3-dihydro-1,4-benzoxazepin-5-one], for which the IC50 lay in the range of 1 to 100 nM.

These data come from patent US11111237B2, “Bicyclic compound and use thereof” (SK BIOPHARMACEUTICALS CO., LTD., priority 2019, dated 2021).
